According to patent US9060971B2, “Combination pharmaceutical agents as inhibitors of HCV replication” (Enanta Pharmaceuticals, Inc., priority 2010, dated 2015):
Read-outs that look alike come from different tables or passages of the source.

System: HCV 1b genotype replicon
Test: HCV replicon drug screening assay (quantitative RT-PCR or luciferase), genotype 1b
Type: cell-based
Conditions: Hepatitis C virus, read-out: Genotype-1b replicon EC50 Range
Source text: HCV replicon cell lines (kindly provided by R. Bartenschlager) isolated from colonies as described by Lohman et. al. (Lohman et al. (1999) Science 285: 110-113, expressly incorporated by reference in its entirety) and used for all experiments. The HCV replicon has the nucleic acid sequence set forth in EMBL Accession No.: AJ242651, the coding sequence of which is from nucleotides 1801 to 8406.
The coding sequence of the published HCV replicon was synthesized and subsequently assembled in a modified plasmid pBR322 (Promega, Madison, Wis.) using standard molecular biology techniques. One replicon cell line (“SGR 11-7”) stably expresses HCV replicon RNA which consists of (i) the HCV 5′UTR fused to the first 12 amino acids of the capsid protein, (ii) the neomycin phosphotransferase gene (neo), (iii) the IRES from encephalomyocarditis virus (EMCV), and (iv) HCV NS2 to NS5B genes and the HCV 3′UTR. Another replicon cell line (“Huh-luc/neo-ET”) described by Vrolijk et. al. (Vrolijk et. al. (2003) Journal of Virological Methods 110:201-209, expressly incorporated by reference in its entirety) stably expresses HCV replicon RNA which consists of (i) the HCV 5′UTR fused to the first 12 amino acids of the capsid protein, (ii) the firefly luciferase reporter gene, (iii) the ubiquitin gene, (iv) the neomycin phosphotransferase gene (neo), (v) the IRES from encephalomyocarditis virus (EMCV), and (vi) HCV NS3 to NS5B genes that harbor cell culture adaptive mutations (E1202G, T12801, K1846T) and the HCV 3′UTR.
These cell lines are maintained at 37° C., 5% CO2, 100% relative humidity in DMEM (Cat#11965-084, Invitrogen), with 10% fetal calf serum (“FCS”, Invitrogen), 1% non-essential amino acids (Invitrogen), 1% of Glutamax (Invitrogen), 1% of 100× penicillin/streptomycin (Cat#15140-122, Invitrogen) and Geneticin (Cat#10131-027, Invitrogen) at 0.75 mg/ml or 0.5 mg/ml for 11-7 and Huh-luc/neo-ET cells, respectively.
EC50 values of single agent compounds and combinations were determined by HCV RNA detection using quantitative RT-PCR, according to the manufacturer's instructions, with a TAQMAN® One-Step RT-PCR Master Mix Reagents Kit (Cat#AB 4309169, Applied Biosystems) on an ABI Model 7500 thermocycler. The TaqMan primers to use for detecting and quantifying HCV RNA are 5′-GCTGCGGCCTGTCGAGCT-3′ (SEQ ID NO: 1), 5′-CAAGGTCGTCTCCGCATAC-3′ (SEQ ID NO: 2) and the probe 5′-FAM-[…]-BHQ-3′ (SEQ ID NO: 3) obtained from Integrated DNA Technologies. HCV RNA is normalized to GAPDH RNA levels in drug-treated cells, which is detected and quantified using the Human GAPDH Endogenous Control Mix (Applied Biosystems, AB 4310884E). Total cellular RNA is purified from 96-well plates using the RNAqueous 96 kit (Ambion, Cat#AM1812). Chemical agent cytotoxicity was evaluated using an MTS assay according to the manufacturer's directions (Promega).
The compounds described herein can be effective against the HCV 1b genotype. It should also be understood that the compounds can inhibit multiple genotypes of HCV. In one embodiment, compounds of Formula (I) are active against the 1a, 1b, 2a, 2b, 3a, 4a, and 5a genotypes. […] The EC50 ranges were classified into the following groups: A>10 nM; B 1-10 nM; C<1 nM. The potential cytotoxicities of each agent were analyzed in parallel by MTS assay and are greater than 3 uM for all agents.

[1] = HCV 1b genotype replicon, quantitative RT-PCR or luciferase assay

Structure (SMILES) | EC50 [1] [nM] | EC50 [nM]
COC(=O)N[C@H](C(=O)N1CCC[C@H]1c1nc2cc(C#Cc3ccc(-c4c[nH]c([C@@H]5CCCN5C(=O)[C@@H](NC(C)=O)C(C)C)n4)cc3)ccc2[nH]1)C(C)C [Compound 86] | < 1 | 
COC(=O)N[C@H](C(=O)N1CCC[C@H]1c1nc2cc(C#Cc3ccc(-c4c[nH]c([C@@H]5CCCN5C(=O)[C@@H](c5ccccc5)C(C)C)n4)cc3)ccc2[nH]1)C(C)C [Compound 87] | < 1 | 
COC(=O)N[C@H](C(=O)N1CCC[C@H]1c1nc2cc(C#Cc3ccc(-c4c[nH]c([C@@H]5CCCN5C(=O)[C@H](NC(=O)OC)C(C)C)n4)cc3)ccc2[nH]1)C(C)C [Compound 88] | < 1 | 
COC(=O)N[C@H](C(=O)N1CCC[C@H]1c1nc(-c2ccc(C#Cc3ccc4[nH]c([C@@H]5CCCN5C(=O)[C@@H](NC(=O)OC)C(C)C)nc4c3)cc2)c[nH]1)c1ccccc1 [Compound 89] | < 1 | 
COC(=O)N[C@H](C(=O)N1CCC[C@H]1c1nc(-c2ccc(C#Cc3ccc4[nH]c([C@@H]5C[C@@H](O)CN5C(=O)[C@@H](NC(=O)OC)C(C)C)nc4c3)cc2)c[nH]1)C(C)C [Compound 91] | < 1 | 
COC(=O)N[C@H](C(=O)N1CCC[C@H]1c1nc(-c2ccc(C#Cc3ccc4[nH]c([C@@H]5CC(F)(F)CN5C(=O)[C@@H](NC(=O)OC)C(C)C)nc4c3)cc2)c[nH]1)C(C)C [Compound 92] | < 1 | 
COC(=O)N[C@H](C(=O)N1CC2(CC2)C[C@H]1c1nc(-c2ccc(C#Cc3ccc4[nH]c([C@@H]5CCCN5C(=O)[C@@H](NC(=O)OC)C(C)C)nc4c3)cc2)c[nH]1)C(C)C [Compound 94] | < 1 | 
CC[C@H](C)[C@H](NC(=O)OC)C(=O)N1CCC[C@H]1c1ncc(-c2ccc(C#Cc3ccc4nc([C@@H]5CCCN5C(=O)[C@@H](NC(=O)OC)[C@@H](C)CC)[nH]c4c3)cc2)[nH]1 [Compound 96] | < 1 | 
COC(=O)N[C@H](C(=O)N1CCC[C@H]1c1ncc(-c2ccc(C#Cc3ccc4nc([C@@H]5CCCN5C(=O)[C@@H](NC(=O)OC)[C@@H](C)O)[nH]c4c3)cc2)[nH]1)[C@@H](C)O [Compound 97] | < 1 | 
COC(=O)N[C@H](C(=O)N1CCC[C@H]1c1ncc(-c2ccc(C#Cc3ccc4nc([C@@H]5CCCN5C(=O)[C@@H](NC(=O)OC)C5CC5)[nH]c4c3)cc2)[nH]1)C(C)C [Compound 98] | < 1 | 
COC(=O)N[C@H](C(=O)N1CCC[C@H]1c1ncc(-c2ccc(C#Cc3ccc4nc([C@@H]5CCCN5C(=O)[C@@H](NC(=O)OC)C(C)(C)C)[nH]c4c3)cc2)[nH]1)C(C)C [Compound 99] | < 1 | 
COC(=O)N[C@H](C(=O)N1CCC[C@H]1c1ncc(-c2ccc(C#Cc3ccc4nc([C@@H]5CCCN5C(=O)[C@@H](NC(=O)OC)C(C)(C)O)[nH]c4c3)cc2)[nH]1)C(C)C [Compound 100] | < 1 | 
COC(=O)N[C@H](C(=O)N1CCC[C@H]1c1ncc(-c2ccc(C#Cc3ccc4nc([C@@H]5CCCN5C(=O)[C@@H](NC(=O)OC)[C@H](C)O)[nH]c4c3)cc2)[nH]1)C(C)C [Compound 101] | < 1 | 
CCC(NC(=O)OC)(C(=O)N1CCC[C@H]1c1nc2ccc(C#Cc3ccc(-c4cnc([C@@H]5CCCN5C(=O)[C@@H](NC(=O)OC)C(C)C)[nH]4)cc3)cc2[nH]1)c1ccccc1 (some centres unmarked) [Compound 102] | < 1 | 
COC(=O)N[C@@H](C(=O)N1CCC[C@H]1c1nc2ccc(C#Cc3ccc(-c4cnc([C@@H]5CCCN5C(=O)[C@H](NC(=O)OC)c5ccccc5)o4)cc3)cc2[nH]1)c1ccccc1 [Compound 103] | < 1 | 
COC(=O)N[C@@H](C(=O)N1CCC[C@H]1c1nc2ccc(CCc3ccc(-c4cnc([C@@H]5CCCN5C(=O)[C@H](NC(=O)OC)c5ccccc5)o4)cc3)cc2[nH]1)c1ccccc1 [Compound 104] | < 1 | 

Structure (SMILES) | EC50 [1] [nM] | EC50 [nM]
COC(=O)N[C@H](C(=O)N1C[C@H](O)C[C@H]1c1ncc(-c2ccc(C#Cc3ccc4nc([C@@H]5CCCN5C(=O)[C@@H](NC(=O)OC)C(C)C)[nH]c4c3)cc2)[nH]1)C(C)C [Compound 105] | < 1 | 
COC(=O)N[C@H](C(=O)N1CCC[C@H]1c1ncc(-c2ccc(C#Cc3ccc4nc([C@@H]5C[C@@H](F)CN5C(=O)[C@@H](NC(=O)OC)C(C)C)[nH]c4c3)cc2)[nH]1)C(C)C [Compound 106] | < 1 | 
COC(=O)N[C@H](C(=O)N1CCC[C@H]1c1ncc(-c2ccc(C#Cc3ccc4nc([C@@H]5C[C@H]6C[C@H]6N5C(=O)[C@@H](NC(=O)OC)C(C)C)[nH]c4c3)cc2)[nH]1)C(C)C [Compound 107] | < 1 | 
COC(=O)N[C@H](C(=O)N1CCC[C@H]1c1ncc(-c2ccc(C#Cc3ccc4nc([C@@H]5CC[C@H](C)N5C(=O)[C@@H](NC(=O)OC)C(C)C)[nH]c4c3)cc2)[nH]1)C(C)C [Compound 108] | < 1 | 
COC(=O)N[C@H](C(=O)N1CCC[C@H]1c1ncc(-c2ccc(C#Cc3ccc4nc([C@@H]5C[C@H](F)CN5C(=O)[C@@H](NC(=O)OC)C(C)C)[nH]c4c3)cc2)[nH]1)C(C)C [Compound 109] | < 1 | 
COC(=O)N[C@H](C(=O)N1CCC[C@H]1c1ncc(-c2ccc(C#Cc3cc4[nH]c([C@@H]5CCCN5C(=O)[C@@H](NC(=O)OC)C(C)C)nc4cc3OC)cc2)[nH]1)C(C)C [Compound 110] | < 1 | 
COC(=O)N[C@@H](C(=O)N1CCC[C@H]1c1nc2cc(-c3ccc(-c4cnc5[nH]c([C@@H]6CCCN6C(=O)[C@H](NC(=O)OC)c6ccccc6)nc5c4)cc3)cnc2[nH]1)c1ccccc1 [Compound 112] | < 1 | 
COC(=O)N[C@H](C(=O)N1CCC[C@H]1c1nc(-c2ccc(C#Cc3ccc4[nH]c([C@@H]5CCCN5C(=O)[C@@H](NC(=O)OC)C(C)C)nc4n3)cc2)c[nH]1)C(C)C [Compound 113] | < 1 | 
COC(=O)N[C@H](C(=O)N1CCC[C@H]1c1nc(-c2ccc3cc(-c4ccc5[nH]c([C@@H]6CCCN6C(=O)[C@@H](NC(=O)OC)C(C)C)nc5n4)ccc3c2)c[nH]1)C(C)C [Compound 114] | < 1 | 
COC(=O)N[C@@H](C(=O)N1CCC[C@H]1c1cc2cc(C#Cc3ccc(-c4c[nH]c([C@@H]5CCCN5C(=O)[C@H](NC(=O)OC)c5ccccc5)n4)cc3)ccc2[nH]1)c1ccccc1 [Compound 116] | < 1 | 
C=C1C[C@@H](c2nc3cc(C#Cc4ccc(-c5c[nH]c([C@@H]6CCCN6C(=O)[C@@H](NC(=O)OC)C(C)C)n5)cc4)ccc3[nH]2)N(C(=O)[C@@H](NC(=O)OC)C(C)C)C1 [Compound 117] | < 1 | 
C=C1C[C@@H](c2nc(-c3ccc(C#Cc4ccc5[nH]c([C@@H]6CCCN6C(=O)[C@@H](NC(=O)OC)C(C)C)nc5c4)cc3)c[nH]2)N(C(=O)[C@@H](NC(=O)OC)C(C)C)C1 [Compound 118] | < 1 | 
C=C1C[C@@H](c2nc(-c3ccc(C#Cc4ccc5[nH]c([C@@H]6CC(=C)CN6C(=O)[C@@H](NC(=O)OC)C(C)C)nc5c4)cc3)c[nH]2)N(C(=O)[C@@H](NC(=O)OC)C(C)C)C1 [Compound 119] | < 1 | 
COC(=O)N[C@@H](C(=O)N1CCC[C@H]1c1ncc(C(=O)N[C@H]2CC[C@H](NC(=O)c3cnc([C@@H]4CCCN4C(=O)[C@H](NC(=O)OC)c4ccccc4)[nH]3)CC2)[nH]1)c1ccccc1 [Compound 120] | > 10 | 
COC(=O)N[C@@H](C(=O)N1CCC[C@H]1c1ncc(C(=O)Nc2ccc(NC(=O)c3cnc([C@@H]4CCCN4C(=O)[C@H](NC(=O)OC)c4ccccc4)[nH]3)cc2)[nH]1)c1ccccc1 [Compound 121] |  | 1 to 10
COC(=O)N[C@H](C(=O)N1CCC[C@H]1c1nc2cc(C#Cc3ccc(-c4c[nH]c(C5[C@H]6CC[C@H](C6)N5C(=O)[C@@H](NC(=O)OC)C(C)C)n4)cc3)ccc2[nH]1)C(C)C (some centres unmarked) [Compound 122] | < 1 | 
